{"source": "PubChem BioAssay (NCI)", "assay_in_all_cases": "DTP human tumour cell line panel, 48 h", "key": {"NCI-H23 lung": {"system": "NCI-H23 lung"}, "NCI-H460 lung": {"system": "NCI-H460 lung"}, "NCI-H522 lung": {"system": "NCI-H522 lung"}, "NCI/ADR-RES ovarian": {"system": "NCI/ADR-RES ovarian"}, "OVCAR-3 ovarian": {"system": "OVCAR-3 ovarian"}, "OVCAR-4 ovarian": {"system": "OVCAR-4 ovarian"}, "OVCAR-5 ovarian": {"system": "OVCAR-5 ovarian"}, "OVCAR-8 ovarian": {"system": "OVCAR-8 ovarian"}, "PC-3 prostate": {"system": "PC-3 prostate"}, "RPMI-8226 leukemia": {"system": "RPMI-8226 leukemia"}, "RXF 393 renal": {"system": "RXF 393 renal"}, "SF-268 CNS": {"system": "SF-268 CNS"}, "SF-295 CNS": {"system": "SF-295 CNS"}, "SF-539 CNS": {"system": "SF-539 CNS"}, "SK-MEL-2 melanoma": {"system": "SK-MEL-2 melanoma"}, "SK-MEL-28 melanoma": {"system": "SK-MEL-28 melanoma"}, "SK-MEL-5 melanoma": {"system": "SK-MEL-5 melanoma"}, "SK-OV-3 ovarian": {"system": "SK-OV-3 ovarian"}, "SN12C renal": {"system": "SN12C renal"}, "SNB-19 CNS": {"system": "SNB-19 CNS"}, "SNB-75 CNS": {"system": "SNB-75 CNS"}, "SR leukemia": {"system": "SR leukemia"}, "SW-620 colon": {"system": "SW-620 colon"}, "T-47D breast": {"system": "T-47D breast"}, "TK-10 renal": {"system": "TK-10 renal"}, "U251 CNS": {"system": "U251 CNS"}, "UACC-257 melanoma": {"system": "UACC-257 melanoma"}, "UACC-62 melanoma": {"system": "UACC-62 melanoma"}, "UO-31 renal": {"system": "UO-31 renal"}}, "note": "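Cells were grown in 96-well plates and exposed to each compound for 48 hours at five concentrations; endpoints were interpolated linearly between bracketing concentrations, or set to the highest concentration if not reached. GI50 marks 50% less growth. TGI denotes the concentration required for complete inhibition of growth.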", "data": [{"smiles": "CC1Cc2c(Cl)ncnc2N(C)c2ccccc21", "note": "(stereo not drawn)", "values": [{"measurement": "GI50", "setting": "NCI-H23 lung", "result": 2.82, "unit": "µM"}, {"measurement": "TGI", "setting": "NCI-H23 lung", "result": 10.9, "unit": "µM"}, {"measurement": "GI50", "setting": "NCI-H460 lung", "result": 3.87, "unit": "µM"}, {"measurement": "TGI", "setting": "NCI-H460 lung", "result": "> 100", "unit": "µM"}, {"measurement": "GI50", "setting": "NCI-H522 lung", "result": 1.76, "unit": "µM"}, {"measurement": "TGI", "setting": "NCI-H522 lung", "result": 3.7, "unit": "µM"}, {"measurement": "GI50", "setting": "NCI/ADR-RES ovarian", "result": 2.69, "unit": "µM"}, {"measurement": "TGI", "setting": "NCI/ADR-RES ovarian", "result": 12.4, "unit": "µM"}, {"measurement": "GI50", "setting": "OVCAR-3 ovarian", "result": 3.4, "unit": "µM"}, {"measurement": "TGI", "setting": "OVCAR-3 ovarian", "result": 20.1, "unit": "µM"}, {"measurement": "GI50", "setting": "OVCAR-4 ovarian", "result": 3.02, "unit": "µM"}, {"measurement": "TGI", "setting": "OVCAR-4 ovarian", "result": "> 100", "unit": "µM"}, {"measurement": "GI50", "setting": "OVCAR-5 ovarian", "result": 6.02, "unit": "µM"}, {"measurement": "TGI", "setting": "OVCAR-5 ovarian", "result": "> 100", "unit": "µM"}, {"measurement": "GI50", "setting": "OVCAR-8 ovarian", "result": 3.42, "unit": "µM"}, {"measurement": "TGI", "setting": "OVCAR-8 ovarian", "result": 27.3, "unit": "µM"}, {"measurement": "GI50", "setting": "PC-3 prostate", "result": 3.9, "unit": "µM"}, {"measurement": "TGI", "setting": "PC-3 prostate", "result": 66.9, "unit": "µM"}, {"measurement": "GI50", "setting": "RPMI-8226 leukemia", "result": 3.54, "unit": "µM"}, {"measurement": "TGI", "setting": "RPMI-8226 leukemia", "result": 16.4, "unit": "µM"}, {"measurement": "GI50", "setting": "RXF 393 renal", "result": 2.57, "unit": "µM"}, {"measurement": "TGI", "setting": "RXF 393 renal", "result": 6.05, "unit": "µM"}, {"measurement": "GI50", "setting": "SF-268 CNS", "result": 2.77, "unit": "µM"}, {"measurement": "TGI", "setting": "SF-268 CNS", "result": 91.6, "unit": "µM"}, {"measurement": "GI50", "setting": "SF-295 CNS", "result": 3.28, "unit": "µM"}, {"measurement": "TGI", "setting": "SF-295 CNS", "result": 37.4, "unit": "µM"}, {"measurement": "GI50", "setting": "SF-539 CNS", "result": 4.56, "unit": "µM"}, {"measurement": "TGI", "setting": "SF-539 CNS", "result": 37.2, "unit": "µM"}, {"measurement": "GI50", "setting": "SK-MEL-2 melanoma", "result": 2.61, "unit": "µM"}, {"measurement": "TGI", "setting": "SK-MEL-2 melanoma", "result": 6.1, "unit": "µM"}, {"measurement": "GI50", "setting": "SK-MEL-28 melanoma", "result": 1.82, "unit": "µM"}, {"measurement": "TGI", "setting": "SK-MEL-28 melanoma", "result": 26.5, "unit": "µM"}, {"measurement": "GI50", "setting": "SK-MEL-5 melanoma", "result": 1.85, "unit": "µM"}, {"measurement": "TGI", "setting": "SK-MEL-5 melanoma", "result": 3.62, "unit": "µM"}, {"measurement": "GI50", "setting": "SK-OV-3 ovarian", "result": 2.37, "unit": "µM"}, {"measurement": "TGI", "setting": "SK-OV-3 ovarian", "result": 12.6, "unit": "µM"}, {"measurement": "GI50", "setting": "SN12C renal", "result": 3.4, "unit": "µM"}, {"measurement": "TGI", "setting": "SN12C renal", "result": 15.5, "unit": "µM"}, {"measurement": "GI50", "setting": "SNB-19 CNS", "result": 4.72, "unit": "µM"}, {"measurement": "TGI", "setting": "SNB-19 CNS", "result": "> 100", "unit": "µM"}, {"measurement": "GI50", "setting": "SNB-75 CNS", "result": 0.352, "unit": "µM"}, {"measurement": "TGI", "setting": "SNB-75 CNS", "result": 33.5, "unit": "µM"}, {"measurement": "GI50", "setting": "SR leukemia", "result": 3.33, "unit": "µM"}, {"measurement": "TGI", "setting": "SR leukemia", "result": 32.6, "unit": "µM"}, {"measurement": "GI50", "setting": "SW-620 colon", "result": 3.08, "unit": "µM"}, {"measurement": "TGI", "setting": "SW-620 colon", "result": 11.2, "unit": "µM"}, {"measurement": "GI50", "setting": "T-47D breast", "result": 4.29, "unit": "µM"}, {"measurement": "TGI", "setting": "T-47D breast", "result": 37.4, "unit": "µM"}, {"measurement": "GI50", "setting": "TK-10 renal", "result": 2.57, "unit": "µM"}, {"measurement": "TGI", "setting": "TK-10 renal", "result": 8.87, "unit": "µM"}, {"measurement": "GI50", "setting": "U251 CNS", "result": 3.92, "unit": "µM"}, {"measurement": "TGI", "setting": "U251 CNS", "result": 37.9, "unit": "µM"}, {"measurement": "GI50", "setting": "UACC-257 melanoma", "result": 3.76, "unit": "µM"}, {"measurement": "TGI", "setting": "UACC-257 melanoma", "result": 21, "unit": "µM"}, {"measurement": "GI50", "setting": "UACC-62 melanoma", "result": 3.32, "unit": "µM"}, {"measurement": "TGI", "setting": "UACC-62 melanoma", "result": 12.8, "unit": "µM"}, {"measurement": "GI50", "setting": "UO-31 renal", "result": 3.37, "unit": "µM"}, {"measurement": "TGI", "setting": "UO-31 renal", "result": 89.1, "unit": "µM"}]}]}
